Literature values, collected in patent US20250186442A1, “Obicetrapib and Ezetimibe Combination Treatment and Fixed Dose Pharmaceutical Compositions” (NewAmsterdam Pharma B.V., priority 2022, published 2025).

Legend:
[1] = tested on: critical physiological systems; details: doses up to 300 mg/kg in rats; cited from earlier work
[2] = patients; daily dosing of 10 mg for 12 weeks, alone and with 2 different statins; cited from earlier work
[3] = tested on: QTcF; details: TA-8995-04; cited from earlier work

In the case of `CCOC(=O)N1c2ccc(C(F)(F)F)cc2[C@@H](N(Cc2cc(C(F)(F)F)cc(C(F)(F)F)c2)c2ncc(OCCCC(=O)O)cn2)C[C@H]1CC` [Obicetrapib, {4-[(2-{[3,5-bis(trifluoromethyl)benzyl][(2R,4S)-1-(ethoxycarbonyl)-2-ethyl-6-(trifluoromethyl)-1,2,3,4-tetrahydroquinolin-4-yl]amino}pyrimidin-5-yl)oxy]butanoic acid}], the “adverse effect on critical physiological systems” value [1] is given as “no adverse effect”, the tolerability [2] is given as “well tolerated” and the “effect on the QTcF” value [3] is given as “no effect”.
